Measurements reported in patent publication US20060035942A1, “Fungicidal combinations of active substances” (priority 2002, published 2006).

The molecules below were run on Pyrenophora teres (assay: Pyrenophora teres test (barley)/curative). Settings: curative, application rate 100 g/ha, evaluation 7 days after inoculation.
Assay type: in vivo
Protocol: Pyrenophora teres Test (Barley)/Curative • Solvent: 25 parts by weight of N,N-dimethylacetamide • Emulsifier: 0.6 part by weight of alkylaryl polyglycol ether To produce a suitable preparation of active compound, 1 part by weight of active compound is mixed with the stated amounts of solvent and emulsifier, and the concentrate is diluted with water to the desired concentration. To test for curative activity, young plants are sprayed with a conidia suspension of Pyrenophora teres. The plants remain in an incubation cabin at 20° C. and 100% relative atmospheric humidity for 48 hours. The plants are then sprayed with the preparation of active compound at the stated application rate. The plants are placed in a greenhouse at a temperature of about 20° C. and a relative atmospheric humidity of about 80%. Evaluation is carried out 7 days after the inoculation. 0% means an efficacy which corresponds to that of the control, whereas an efficacy of 100% means that no infection is observed.

Row | SMILES | Efficacy in %
1 | OC(Cc1ccccc1Cl)(Cn1nc[nH]c1=S)C1(Cl)CC1 (stereo not drawn) [Ex. (II)] | 56%
2 | CON=C(C(=O)OC)c1ccccc1CO/N=C(\C)c1cccc(C(F)(F)F)c1 [Ex. (I)] | 67%
3 | CC(C)(C)C(O)(CCc1ccc(Cl)cc1)Cn1cncn1 (stereo not drawn) [Ex. (III)] | 22%
